Among the data in patent publication US12448382B2, “Heterocyclic compounds for mediating tyrosine kinase 2 activity” (GUANGZHOU INNOCARE PHARMA TECH CO., LTD., priority 2019, dated 2025) are IC50 values, retold here.

In assay [1] the target is T1, human recombinant JAK2 protein (Homo sapiens, UniProt O60674).
T1 construct: purchased Carna Biosciences 08-045
Put plainly: JAK2 Inhibition Assay (HTRF kinase assay). To be noted: human recombinant JAK2, 2.5 μM ATP substrate solution. Type of assay: biochemical. In short, it runs like this: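 Recombinant human JAK2 was preincubated 15 min at room temperature with compound in buffer containing 5 mM MgCl2, 1 mM DTT and 0.01% Brij35. Substrate solution (2.5 μM ATP, 0.25 μM biotinylated TK substrate) was then added for 30 min. Phosphorylation was detected by HTRF (665/620 nm ratio; no-enzyme = 100% inhibition), and IC50 was fitted from an 8-point, 4-fold series.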

The target of assay [2] is T2, human recombinant TYK2 protein (Homo sapiens, UniProt P29597).
T2 construct: purchased Carna Biosciences 08-147
T2 sequence (P29597 871-1187 limits assumed): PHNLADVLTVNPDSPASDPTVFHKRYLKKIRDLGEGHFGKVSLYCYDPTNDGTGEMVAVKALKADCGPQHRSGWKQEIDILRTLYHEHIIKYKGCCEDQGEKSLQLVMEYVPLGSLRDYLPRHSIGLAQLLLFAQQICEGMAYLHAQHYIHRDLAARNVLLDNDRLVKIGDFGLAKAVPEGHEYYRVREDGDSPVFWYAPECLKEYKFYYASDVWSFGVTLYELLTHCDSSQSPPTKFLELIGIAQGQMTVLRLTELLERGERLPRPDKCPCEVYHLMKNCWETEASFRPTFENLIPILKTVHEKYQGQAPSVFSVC
Briefly: TYK2 Inhibition Assay (HTRF kinase assay). Type of assay: biochemical. To be noted: human recombinant TYK2, 11.25 μM ATP substrate solution. The method, boiled down: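 Recombinant human TYK2 was pre-incubated 15 min at room temperature with compound, then reacted for 40 min with biotinylated tyrosine-kinase substrate and ATP (substrate solution 11.25 μM ATP, 0.5 μM substrate; 5 mM MgCl2, 0.01% Brij35). Phosphorylation was read by HTRF 665/620 ratio, normalised to no-enzyme and no-compound controls, and IC50 was fitted from 8 4-fold dilutions.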
In general terms: In TR-FRET formats the signal depends on donor and acceptor labels being close together.

Assay [3] has as its system IL-12-induced IFN-γ secretion in NK92 cells. Briefly: Inhibition of IL-12-induced IFN-γ Secretion in NK92 Cells (ELISA). Type of assay: cell-based, human. To be noted: Homo sapiens, 24 hours incubation, 8 concentration points, read-out: IC50 (NK92_IL12/IFNγ). The method, boiled down:
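NK92 cells (100,000/well, IL-2-free medium) rested overnight, then treated with compound plus IL-12 for 24 h at 37 °C. Secreted IFN-γ measured in supernatant by ELISA. Inhibition normalized to unstimulated and IL-12/0.2% DMSO controls; IC50 fitted from 8 concentrations.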

T1 sequence (O60674 826-1132 limits assumed): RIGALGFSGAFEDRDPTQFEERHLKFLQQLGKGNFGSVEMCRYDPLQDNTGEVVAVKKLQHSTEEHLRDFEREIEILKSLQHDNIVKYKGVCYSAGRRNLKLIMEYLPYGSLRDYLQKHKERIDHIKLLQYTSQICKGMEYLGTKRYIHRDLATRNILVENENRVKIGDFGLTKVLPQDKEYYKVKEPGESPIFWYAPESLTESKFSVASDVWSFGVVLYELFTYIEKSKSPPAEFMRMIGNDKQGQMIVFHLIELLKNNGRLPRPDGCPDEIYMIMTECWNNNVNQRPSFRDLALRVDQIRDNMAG

With `Cn1cc(Nc2ncc(Cl)c(N3C[C@H]4CN(C(=O)C5CC5)C[C@@]4(C)C3)n2)cn1` [Compound 87, ((3aR,6aS)-5-(5-chloro-2-((1-methyl-1H-pyrazol-4-yl)amino)pyrimidin-4-yl)-3a-methylhexahydropyrrolo[3,4-c]pyrrol-2(1H)-yl)(cyclopropyl)methanone], the IC50 amounted to 9 nM in assay [1], 6 nM in assay [2] and 959 nM in assay [3].
The like results for `C[C@@]12CN(C(=O)C3CC3)C[C@]1(C)CN(c1nc(Nc3cn[nH]c3)ncc1Cl)C2` [Compound 23, ((3aR,6aS)-5-(2-((1H-pyrazol-4-yl)amino)-5-chloropyrimidin-4-yl)-3a,6a-dimethylhexahydropyrrolo[3,4-c]pyrrol-2(1H)-yl)(cyclopropyl)methanone] were, in that order, 3 nM, 1 nM and 551 nM.
The corresponding values for `Cn1cc(Nc2ncc(Cl)c(N3C[C@]4(C)CN(C(=O)CC#N)C[C@]4(C)C3)n2)cn1` [Compound 20, 3-((3aR,6aS)-5-(5-chloro-2-((1-methyl-1H-pyrazol-4-yl)amino)pyrimidin-4-yl)-3a,6a-dimethylhexahydropyrrolo[3,4-c]pyrrol-2(1H)-yl)-3-oxopropanenittile] are 1.2 nM, 0.5 nM and 233 nM.
The like results for `Cn1cc(Nc2ncc(Cl)c(N3C[C@]4(C)CN(C(=O)C(C)(C)C#N)C[C@]4(C)C3)n2)cn1` [Compound 45, 3-((3aR,6aS)-5-(5-chloro-2-((1-methyl-1H-pyrazol-4-yl)amino)pyrimidin-4-yl)-3a,6a-dimethylhexahydropyrrolo[3,4-c]pyrrol-2(1H)-yl)-2,2-dimethyl-3-oxopropanenitrile] were, in that order, 19 nM, 12 nM and 5390 nM.
For `Cc1noc(CN2C[C@@]3(C)CN(c4nc(Nc5cnn(C)c5)ncc4Cl)C[C@@]3(C)C2)n1` [Compound 82, 5-chloro-4-((3aR,6aS)-3a,6a-dimethyl-5-((3-methyl-1,2,4-oxadiazol-5-yl)methyl)hexahydropyrrolo[3,4-c]pyrrol-2(1H)-yl)-N-(1-methyl-1H-pyrazol-4-yl)pyrimidin-2-amine], the IC50 in assay [1] was determined as 14 nM; in assay [2] it was 16 nM; in assay [3], 2870 nM.
The like results for `Cn1cc(Nc2ncc(Cl)c(N3C[C@@H]4CN(C(=O)C5CC5)C[C@]4(C)C3)n2)cn1` [Compound 86, ((3aS,6aR)-5-(5-chloro-2-((1-methyl-1H-pyrazol-4-yl)amino)pyrimidin-4-yl)-3a-methylhexahydropyrrolo[3,4-c]pyrrol-2(1H)-yl)(cyclopropyl)methanone] were, in that order, 1.7 nM, 0.3 nM and 99 nM.
Regarding `Cn1cc(Nc2ncc(Cl)c(N3C[C@]4(C)CN(c5ccno5)C[C@]4(C)C3)n2)cn1` [Compound 66], the IC50 in assay [1] was found to be 0.3 nM; in assay [2] it was 0.2 nM; in assay [3], 66 nM.
The like results for `Cn1cc(Nc2ncc(Cl)c(N3C[C@H]4CN(C(=O)[C@@H]5CC5(F)F)C[C@H]4C3)n2)cn1` [Compound 27, ((3aR,6aS)-5-(5-chloro-2-((1-methyl-1H-pyrazol-4-yl)amino)pyrimidin-4-yl)hexahydropyrrolo[3,4-c]pyrrol-2(1H)-yl)((S)-2,2-difluorocyclopropyl)methanone] were, in that order, 15 nM, 16 nM and 847 nM.
For the molecule `Cn1cc(Nc2ncc(Cl)c(N3C[C@@]4(C)CN(S(C)(=O)=O)C[C@@]4(C)C3)n2)cn1` [Compound 34, 5-chloro-4-((3aR,6aS)-3a,6a-dimethyl-5-(methylsulfonyl)hexahydropyrrolo[3,4-c]pyrrol-2(1H)-yl)-N-(1-methyl-1H-pyrazol-4-yl)pyrimidin-2-amine], the results for the IC50 in assay [1], in assay [2] and in assay [3] were 1.8 nM, 0.6 nM and 287 nM, respectively.
For the molecule `Cc1ncc(CN2C[C@@]3(C)CN(c4nc(Nc5cnn(C)c5)ncc4Cl)C[C@@]3(C)C2)o1` [Compound 80, 5-chloro-4-((3aR,6aS)-3a,6a-dimethyl-5-((2-methyloxazol-5-yl)methyl)hexahydropyrrolo[3,4-c]pyrrol-2(1H)-yl)-N-(1-methyl-1H-pyrazol-4-yl)pyrimidin-2-amine], the IC50 in assay [1] was determined as 16 nM; in assay [2], 19 nM; in assay [3] it was 4090 nM.
As to `Cn1cc(Nc2ncc(Cl)c(N3C[C@]4(C)CN(C(=O)CO)C[C@]4(C)C3)n2)cn1` [Compound 35, 1-((3aR,6aS)-5-(5-chloro-2-((1-methyl-1H-pyrazol-4-yl)amino)pyrimidin-4-yl)-3a,6a-dimethylhexahydropyrrolo[3,4-c]pyrrol-2(1H)-yl)-2-hydroxyethan-1-one], the IC50 in assay [1] stood at 3.3 nM; in assay [2], 0.6 nM; in assay [3], 453 nM.
The like results for `Cc1cnc(Nc2cnn(C)c2)nc1N1C[C@@H]2CN(C(=O)[C@@H]3CC3(F)F)C[C@]2(C)C1` (racemic) [Compound 72] were, in that order, 4.5 nM, 3.4 nM and 824 nM.
In the case of `Cn1cc(Nc2ncc(Cl)c(N3C[C@H]4CN(C(=O)[C@@H]5CC5(F)F)C[C@@]4(C)C3)n2)cn1` [Compound 91, ((3aR,6aS)-5-(5-chloro-2-((1-methyl-1H-pyrazol-4-yl)amino)pyrimidin-4-yl)-3a-methylhexahydropyrrolo[3,4-c]pyrrol-2(1H)-yl)((S)-2,2-difluorocyclopropyl)methanone], the values for the IC50 in assay [1], in assay [2] and in assay [3] were 2.6 nM, 3.2 nM and 388 nM, respectively.
The like results for `Cn1cc(Nc2ncc(Cl)c(N3C[C@]4(C)CN(Cc5cn[nH]c5)C[C@]4(C)C3)n2)cn1` [Compound 79, 4-((3aR,6aS)-5-((1H-pyrazol-4-yl)methyl)-3a,6a-dimethylhexahydropyrrolo[3,4-c]pyrrol-2(1H)-yl)-5-chloro-N-(1-methyl-1H-pyrazol-4-yl)pyrimidin-2-amine] were, in that order, 40 nM, 51 nM and 3970 nM.
For the molecule `C[C@@H](O)Cn1cc(Nc2ncc(Cl)c(N3C[C@]4(C)CN(C(=O)C5CC5)C[C@]4(C)C3)n2)cn1` [Compound 17, ((3aR,6aS)-5-(5-chloro-2-((1-((R)-2-hydroxypropyl)-1H-pyrazol-4-yl)amino)pyrimidin-4-yl)-3a,6a-dimethylhexahydropyrrolo[3,4-c]pyrrol-2(1H)-yl)(cyclopropyl)methanone], the IC50 in assay [1] was determined as 3.2 nM; in assay [2], 1.6 nM; in assay [3] it was 1050 nM.
The corresponding values for `C[C@H](O)Cn1cc(Nc2ncc(Cl)c(N3C[C@]4(C)CN(C(=O)C5CC5)C[C@]4(C)C3)n2)cn1` [Compound 18] are 3.5 nM, 1.6 nM and 617 nM.
The like results for `Cn1cc(Nc2ncc(Cl)c(N3C[C@]4(C)CN(C(=O)C5CC5)C[C@]4(C)C3)n2)cn1` [Compound 12, ((3aR,6aS)-5-(5-chloro-2-((1-methyl-1H-pyrazol-4-yl)amino)pyrimidin-4-yl)-3a,6a-dimethylhexahydropyrrolo[3,4-c]pyrrol-2(1H)-yl)(cyclopropyl)methanone] were, in that order, 4.2 nM, 1.1 nM and 419 nM.
The corresponding values for `CCS(=O)(=O)N1C[C@]2(C)CN(c3nc(Nc4cnn(C)c4)ncc3Cl)C[C@]2(C)C1` [Compound 41, 5-chloro-4-((3aR,6aS)-5-(ethylsulfonyl)-3a,6a-dimethylhexahydropyrrolo[3,4-c]pyrrol-2(1H)-yl)-N-(1-methyl-1H-pyrazol-4-yl)pyrimidin-2-amine] are 1.7 nM, 1.3 nM and 635 nM.
Consider `C[C@@]12CN(C(=O)C3CC3)C[C@]1(C)CN(c1nc(Nc3cnn(CCO)c3)ncc1F)C2` [Compound 13], for which the results for the IC50 in assay [1], in assay [2] and in assay [3] were 170 nM, 8.5 nM and 4140 nM, respectively.
The like results for `Cn1cc(Nc2ncc(Cl)c(N3C[C@@H]4CN(Cc5ccno5)C[C@]4(C)C3)n2)cn1` (racemic) [Compound 74, cis-5-chloro-4-(5-(isoxazol-5-ylmethyl)-3a-methylhexahydropyrrolo[3,4-c]pyrrol-2(1H)-yl)-N-(1-methyl-1H-pyrazol-4-yl)pyrimidin-2-amine] were, in that order, 2.4 nM, 1.6 nM and 209 nM.
